# Assay results published in US11504383B2, “Crystalline forms of a Ryanodine receptor modulator and uses thereof” (ARMGO Pharma, Inc., priority 2021, dated 2022).
# Entries after “also recorded” stand apart in the source; their conditions may differ.
# Legend:
# Format in all cases: physicochemical
# [1] = Dynamic vapor sorption (hygroscopicity); conditions: DVS, 25° C., 0-90% relative humidity
# Procedure: Dynamic vapor sorption (DVS) analysis was performed by measuring mass variation of the crystalline form of 4-[(7-methoxy-2,3-dihydro-1,4-benzothiazepin-4(5H)yl)methyl]benzoic acid hemifumarate as a function of relative humidity using a DVS intrinsic instrument. A 5 mg to 10 mg of a sample of a crystalline form of 4-[(7-methoxy-2,3-dihydro-1,4-benzothiazepin-4(5H)yl)methyl]benzoic acid, hemifumarate was placed into a sample pan of a DVS intrinsic instrument at 25° C. under controlled humidity. The mass variation was recorded as a function of relative humidity.
# Measurement of DVS comprised: (a) equilibrating a sample of the crystalline form at 25° C. and 50% relative humidity in a temperature-controlled and humidity controlled chamber until mass variation is less than 0.002% per minute for 6 hours; (b) increasing the relative humidity from 50% to 90% at a rate of 10% per hour; (c) equilibrating the sample at 90% relative humidity until mass variation of less than 0.002% per minute for 6 hours is observed; (d) decreasing the relative humidity from 90% to 0% at a rate of 10% per hour; (e) equilibrating the sample at 0% relative humidity until mass variation of less than 0.002% per minute for 6 hours is observed; and (f) increasing the relative humidity from 0% to 50% at a rate of 10% per hour.
# [2] = Thermogravimetric analysis (loss of mass before melting/degradation); conditions: 25° C. to 250° C. at about 10° C./minute
# Procedure: Thermogravimetric analysis (TGA) was performed. A 10 to 20 mg of sample of a crystalline form of 4-[(7-methoxy-2,3-dihydro-1,4-benzothiazepin-4(5H)yl)methyl]benzoic acid hemifumarate was placed into an aluminum pan, with nitrogen purge. The sample was equilibrated at 25° C. in a temperature-controlled chamber. The sample was heated at a scan rate of about 10° C./minute to 250° C. under nitrogen purge. A TGA Q5000 thermogravimetric analysis instrument was used.
# [3] = Competitive slurry experiments mixing Form 1 and Form 2 in various solvents; conditions: competitive slurry experiments at 15° C. and 40° C.
# Procedure: Competitive slurry experiments were performed at 15° C. (Table 5) or 40° C. (Table 6) by mixing Form 1 and Form 2 in various solvents in acetonitrile/water, acetone/water and methanol/water mixtures. […] (Table 5) or 40° C. (Table 6).
# [4] = Storage stability of the polymorphs followed by XRD; conditions: after 24 months (XRD at 3, 6, 12 and 24 months)
# Procedure: The top panel depicts the polymorph at initiation and the bottom three panels depict the polymorph after 24 months. FIG. 5 Panel A: initial control; FIG. 5 Panel B: sample stored for 2 years in open bottle in stability chambers at 25° C./60% relative humidity (RH); FIG. 5 Panel C: sample stored for 2 years in closed bottle in stability chambers at 40° C./75% RH; FIG. 5 Panel D: sample stored for 2 years in open bottle in stability chambers at 40° C./75% RH.
# The top panel depicts the polymorph at initiation and the bottom panels depict the polymorph after 3, 6, 12 and 24 months.
structure (smiles),measurement,setting,value
"COc1ccc2c(c1)CN(Cc1ccc(C(=O)O)cc1)CCS2.O=C(O)/C=C/C(=O)O [Form 2, 4-[(7-methoxy-2,3-dihydro-1,4-benzothiazepin-4(5H)yl)methyl]benzoic acid, hemifumarate]",Hygroscopicity,[1],non-hygroscopic; also recorded: not hygroscopic
same,Loss of mass before melting degradation (TGA),[2],< 0.1%
same,Relative stability of the forms,[3],more stable than Form 1
same,"Stability of the polymorph on storage (XRD, FIG. 10)",[4],stable
